{"source": "patent US20100292081A1", "about": "“Herbicidal Control Using Sulfentrazone and Dithiopyr” (FMC Corporation, priority 2009, published 2010)", "assay_type_in_all_cases": "in vivo", "key": {"[1]": {"test_system": "crabgrass (Digitaria sp.)", "test": "Pre-emergence control of crabgrass on turf plots (Example 3)", "source_text": "(§1) The presence of a synergistic effect between the two active ingredients is established with the aid of the Colby equation (see Colby, S. R., “Calculating Synergistic and Antagonistic Responses of Herbicide Combinations”, Weeds 1967, 15, pg 20-22): E=X+Y−(XY/100).\n(§2) Using the method of Colby, the presence of a synergistic interaction between two active ingredients is established by first calculating the expected activity, ‘E’, of the mixture based on activities of the two components applied alone. In the equation above, ‘X’ is the herbicidal activity in percentage control of sulfentrazone applied alone at rate ‘x’. The ‘Y’ term is the herbicidal activity of dithiopyr applied alone at rate ‘y’. The equation calculates ‘E’, the herbicidal activity of the mixture of ‘X’ at rate ‘x’ with ‘Y’ at rate ‘y’. If ‘E’ is lower than the observed activity, synergy is present. If the herbicidal effects are strictly additive, and no interaction has occurred, ‘E’ will be equal to or higher than the observed activity.\n(§3) Control of large crabgrass (Digitaria sanguinalis), parsley piert (Alchenilla arvensis), common chickweed (Stellaria media) and shiny cudweed (Gnaphalium spicatum) was evaluated at 23 days after treatment (DAT) for each test rate. In order t to provide a measure of the effectiveness of a herbicide's performance weed control ratings were based on visual observations of the presence or absence of various weeds or of symptoms (necrosis, wilting, curling of leaves, discoloration etc.) on weeds compared to lack of symptoms. Ratings are based on the 0 to 100 rating system, where 0 equals no control and 100 equals complete control, which generally makes use of direct-percentage figures. In this system the standard basis for comparison is an untreated weedy check. Counts are made of each weed species found in the untreated area of the study. This provides a basis to give a precise representation of both weed infestation and degree of control provided by various chemical treatments. Counts are made on randomly selected areas which are generally 1 square foot to 1 square yard in size. Ratings are made for each weed species found in the untreated treatments. For example, a random area in an untreated plot has 10 yellow nutsedge plants per square foot equaling 0% control. A treated plot has only 1 yellow nutsedge plant found in the randomly selected area equaling 90% control.\n(§4) Test compositions containing sulfentrazone (Dismiss™ Turf Herbicide), dithiopyr (DIMENSION® Ultra 40WP Specialty Herbicide) and mixtures thereof, were diluted with water to provide the appropriate test rate concentrations.\n(§5) The size of each experimental turf plot was 4 feet by 4 feet, treating the inner 10 ft^2 per plot. The application of each test composition was performed with a pressurized back-pack sprayer, calibrated to spray between 10 and 15 gallons per acre. Four replications were made for each test rate along an untreated control plot.\n(§6) Pre-emergence control of crabgrass (Digitaria sp.) was evaluated 180 days after treatment (DAT). Post-emergence control of curly dock (Rumex crispus) and shiny cudweed (Gnaphalium spicatum) parsley were evaluated at 65 days after treatment for each test rate. The evaluation results were compared with results observed in untreated control plots in the same trials as described in Example 1 to determine % control and are summarized in Table 3 below. There was no damage to the turf grass at any rate tested. The Colby equation expected values are also in Table 3."}, "[2]": {"test_system": "curly dock (Rumex crispus)", "test": "Post-emergence control of curly dock on turf plots (Example 3)", "source_text": "as §1, §2, §3, §4, §5, §6"}, "[3]": {"test_system": "parsley piert (Alchenilla arvensis)", "test": "Pre-emergent herbicidal evaluation on turf plots (Example 1), parsley piert", "source_text": "as §1, §2, §4, §5\n(§7) Control of large crabgrass (Digitaria sanguinalis), parsley piert (Alchenilla arvensis), common chickweed (Stellaria media) and shiny cudweed (Gnaphalium spicatum) was evaluated at 23 days after treatment (DAT) for each test rate. In order t to provide a measure of the effectiveness of a herbicide's performance weed control ratings were based on visual observations of the presence or absence of various weeds or of symptoms (necrosis, wilting, curling of leaves, discoloration etc.) on weeds compared to lack of symptoms. […]"}, "[4]": {"test_system": "crabgrass (Digitaria sp.)", "test": "Early post-emergent control of crabgrass on turf plots (Example 4)", "conditions": "1 to 4 leaf stage, 45 DAT, X-77 0.25% V/V", "source_text": "as §1, §2, §3\nTest compositions containing sulfentrazone (Dismiss™ Turf Herbicide), dithiopyr (DIMENSION® Ultra 40WP Specialty Herbicide) and mixtures thereof, were diluted with water to provide the appropriate test rate concentrations. A non-ionic surfactant (X-77) was added to each test solution, 0.25% V/V. […]\nControl of crabgrass (Digitaria sp.) was evaluated at 45 days after treatment for each test rate. […]"}, "[5]": {"test_system": "large crabgrass (Digitaria sanguinalis)", "test": "Pre-emergent herbicidal evaluation on turf plots (Example 1), large crabgrass", "source_text": "as §1, §2, §4, §5\nIn order t to provide a measure of the effectiveness of a herbicide's performance weed control ratings were based on visual observations of the presence or absence of various weeds or of symptoms (necrosis, wilting, curling of leaves, discoloration etc.) on weeds compared to lack of symptoms. Ratings are based on the 0 to 100 rating system, where 0 equals no control and 100 equals complete control, which generally makes use of direct-percentage figures. In this system the standard basis for comparison is an untreated weedy check. […]"}, "[6]": {"test_system": "shiny cudweed (Gnaphalium spicatum)", "test": "Pre-emergent herbicidal evaluation on turf plots (Example 1), shiny cudweed", "source_text": "as §1, §2, §4, §5, §7"}, "[7]": {"test_system": "shiny cudweed (Gnaphalium spicatum)", "test": "Post-emergence control of shiny cudweed on turf plots (Example 3)", "source_text": "as §1, §2, §3, §4, §5, §6"}, "[8]": {"test_system": "common chickweed (Stellaria media)", "test": "Pre-emergent herbicidal evaluation on turf plots (Example 1), common chickweed", "source_text": "as §1, §2, §4, §5, §7"}, "[9]": {"test_system": "broadleaf weeds (medic, buckhorn plantain, clover, red sorrel, dandelion)", "test": "Post-emergent herbicidal evaluation on turf plots (Example 2), broadleaf weeds in total", "conditions": "45 DAT, NIS 0.25% V/V", "source_text": "as §1, §2, §3\nTest compositions containing sulfentrazone (Dismiss™ Turf Herbicide), dithiopyr (DIMENSION® Ultra 40WP Specialty Herbicide) and mixtures thereof, were diluted with water to provide the appropriate test rate concentrations. A non-ionic surfactant (NIS) was added to each test solution, 0.25% V/V.\nas §5, with “plot. The post-emergence application of” for “plot. The application of”\nControl of broadleaf weeds was evaluated at 45 days after treatment (DAT) for each test rate. The broadleaf weeds included medic (Medicago sp.), buckhorn plantain (Plantago lanceolata), clover (Trifolium sp.), red sorrel (Rumex acetosella) and dandelion (Traxacum afficinale). Percent control of the broadleaf weeds was reported as a total number of broadleaf weeds controlled, not as individual species. The evaluation results were compared with results observed in untreated control plots in the same trials as described in Example 1 to determine % control and are summarized in Table 2 below. There was no damage to the turf grass at any rate tested. The Colby equation expected values are also in Table 2."}}}
{"smiles": "Cc1nn(-c2cc(NS(C)(=O)=O)c(Cl)cc2Cl)c(=O)n1C(F)F", "note": "[Sulfentrazone, N-[2,4-dichloro-5-[4-difluoromethyl-4,5-dihydro-3-methyl-5-oxo-1H-1,2,4-triazol-1-yl]phenyl]methanesulfonamide]", "values": [{"measurement": "% Control of Weeds Crabgrass 180 DAT Pre-emergent application", "setting": "[1]; 0.0625 lb/ac", "value": 0, "unit": "%"}, {"measurement": "% Control of Weeds Crabgrass 180 DAT Pre-emergent application", "setting": "[1]; 0.125 lb/ac", "value": 0, "unit": "%"}, {"measurement": "% Control of Weeds Crabgrass 180 DAT Pre-emergent application", "setting": "[1]; 0.25 lb/ac", "value": 0, "unit": "%"}, {"measurement": "% Control of Weeds Curly Dock 65 DAT Post-emergent application", "setting": "[2]; 0.0625 lb/ac", "value": 0, "unit": "%"}, {"measurement": "% Control of Weeds Curly Dock 65 DAT Post-emergent application", "setting": "[2]; 0.125 lb/ac", "value": 16, "unit": "%"}, {"measurement": "% Control of Weeds Curly Dock 65 DAT Post-emergent application", "setting": "[2]; 0.25 lb/ac", "value": 20, "unit": "%"}, {"measurement": "% Control of Weeds Parsley Piert 23 DAT", "setting": "[3]; 0.25 lb/ac", "value": 47, "unit": "%"}, {"measurement": "% Control of Weeds Parsley Piert 23 DAT", "setting": "[3]; .0125 lb/ac", "value": 40, "unit": "%"}, {"measurement": "% Control of Crabgrass", "setting": "[4]; 0.125 lb/ac", "value": 30, "unit": "%"}, {"measurement": "% Control of Crabgrass", "setting": "[4]; 0.25 lb/ac", "value": 36, "unit": "%"}, {"measurement": "% Control of Weeds Large Crabgrass 132 DAT", "setting": "[5]; 0.25 lb/ac", "value": 23, "unit": "%"}, {"measurement": "% Control of Weeds Large Crabgrass 132 DAT", "setting": "[5]; .0125 lb/ac", "value": 7, "unit": "%"}, {"measurement": "% Control of Weeds Shiny Cudweed 23 DAT", "setting": "[6]; 0.25 lb/ac", "value": 43, "unit": "%"}, {"measurement": "% Control of Weeds Shiny Cudweed 23 DAT", "setting": "[6]; .0125 lb/ac", "value": 31, "unit": "%"}, {"measurement": "% Control of Weeds Shiny Cudweed 65 DAT Post-emergent application", "setting": "[7]; 0.0625 lb/ac", "value": 30, "unit": "%"}, {"measurement": "% Control of Weeds Shiny Cudweed 65 DAT Post-emergent application", "setting": "[7]; 0.125 lb/ac", "value": 50, "unit": "%"}, {"measurement": "% Control of Weeds Shiny Cudweed 65 DAT Post-emergent application", "setting": "[7]; 0.25 lb/ac", "value": 50, "unit": "%"}, {"measurement": "% Control of Weeds Common Chickweed 23 DAT", "setting": "[8]; 0.25 lb/ac", "value": 45, "unit": "%"}, {"measurement": "% Control of Weeds Common Chickweed 23 DAT", "setting": "[8]; .0125 lb/ac", "value": 23, "unit": "%"}, {"measurement": "% Broadleaf Weed Cover", "setting": "[9]; 0.125 lb/ac", "value": 15, "unit": "%"}, {"measurement": "% Control of Broadleaf Weeds", "setting": "[9]; 0.125 lb/ac", "value": 16, "unit": "%"}, {"measurement": "% Broadleaf Weed Cover", "setting": "[9]; 0.25 lb/ac", "value": 10, "unit": "%"}, {"measurement": "% Control of Broadleaf Weeds", "setting": "[9]; 0.25 lb/ac", "value": 44, "unit": "%"}]}
{"smiles": "CSC(=O)c1c(C(F)F)nc(C(F)(F)F)c(C(=O)SC)c1CC(C)C", "note": "[Dithiopyr, S,S′-dimethyl 2-(difluoromethyl)-4-(2-methylpropyl)-6-(trifluoromethyl)-3,5-pyridinedicarbothiolate]", "values": [{"measurement": "% Control of Weeds Crabgrass 180 DAT Pre-emergent application", "setting": "[1]; 0.0125 lb/ac", "value": 59, "unit": "%"}, {"measurement": "% Control of Weeds Crabgrass 180 DAT Pre-emergent application", "setting": "[1]; 0.25 lb/ac", "value": 23, "unit": "%"}, {"measurement": "% Control of Weeds Curly Dock 65 DAT Post-emergent application", "setting": "[2]; 0.0125 lb/ac", "value": 36, "unit": "%"}, {"measurement": "% Control of Weeds Curly Dock 65 DAT Post-emergent application", "setting": "[2]; 0.25 lb/ac", "value": 60, "unit": "%"}, {"measurement": "% Control of Weeds Parsley Piert 23 DAT", "setting": "[3]; 0.5 lb/ac", "value": 38, "unit": "%"}, {"measurement": "% Control of Crabgrass", "setting": "[4]; 0.25 lb/ac", "value": 50, "unit": "%"}, {"measurement": "% Control of Crabgrass", "setting": "[4]; 0.5 lb/ac", "value": 88, "unit": "%"}, {"measurement": "% Control of Weeds Large Crabgrass 132 DAT", "setting": "[5]; 0.5 lb/ac", "value": 88, "unit": "%"}, {"measurement": "% Control of Weeds Shiny Cudweed 23 DAT", "setting": "[6]; 0.5 lb/ac", "value": 29, "unit": "%"}, {"measurement": "% Control of Weeds Shiny Cudweed 65 DAT Post-emergent application", "setting": "[7]; 0.0125 lb/ac", "value": 53, "unit": "%"}, {"measurement": "% Control of Weeds Shiny Cudweed 65 DAT Post-emergent application", "setting": "[7]; 0.25 lb/ac", "value": 60, "unit": "%"}, {"measurement": "% Control of Weeds Common Chickweed 23 DAT", "setting": "[8]; 0.5 lb/ac", "value": 53, "unit": "%"}, {"measurement": "% Broadleaf Weed Cover", "setting": "[9]; 0.125 lb/ac", "value": 21, "unit": "%"}, {"measurement": "% Control of Broadleaf Weeds", "setting": "[9]; 0.125 lb/ac", "value": 0, "unit": "%"}, {"measurement": "% Broadleaf Weed Cover", "setting": "[9]; 0.25 lb/ac", "value": 8, "unit": "%"}, {"measurement": "% Control of Broadleaf Weeds", "setting": "[9]; 0.25 lb/ac", "value": 55, "unit": "%"}]}
